Measured values taken from PMC3774784 (Bioorganic & medicinal chemistry letters, 2011).
Read-outs that look alike come from different tables or passages of the source.

Columns and labels:
human VEGFR2 kinase = human VEGFR2 kinase (Homo sapiens, UniProt P35968); test: KDR ELISA assay; assay type: biochemical
KDR [1] = conditions: read-out: reported IC50 value; final ATP concentration 2 μM; cited from earlier work
KDR [2] = conditions: read-out: Reported KDR Inhibition IC50; cited from earlier work

Sequence of human VEGFR2 kinase (P35968 790-1356 limits assumed): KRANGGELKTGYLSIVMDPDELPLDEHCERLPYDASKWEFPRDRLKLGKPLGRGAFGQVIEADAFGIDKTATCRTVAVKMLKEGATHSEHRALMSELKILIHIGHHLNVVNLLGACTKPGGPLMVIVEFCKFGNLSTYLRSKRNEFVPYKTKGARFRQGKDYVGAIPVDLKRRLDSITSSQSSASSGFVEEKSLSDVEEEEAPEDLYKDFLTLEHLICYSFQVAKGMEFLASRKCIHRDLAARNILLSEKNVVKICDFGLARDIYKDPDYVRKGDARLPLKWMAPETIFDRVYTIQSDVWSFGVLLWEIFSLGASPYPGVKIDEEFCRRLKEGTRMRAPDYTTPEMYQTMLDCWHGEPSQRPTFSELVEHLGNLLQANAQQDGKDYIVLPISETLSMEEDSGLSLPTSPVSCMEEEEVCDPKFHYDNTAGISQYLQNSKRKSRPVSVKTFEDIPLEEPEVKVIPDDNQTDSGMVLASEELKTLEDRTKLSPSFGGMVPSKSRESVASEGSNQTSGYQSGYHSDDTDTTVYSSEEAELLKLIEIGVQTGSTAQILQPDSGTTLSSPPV

In the case of `COc1cc2nccc(Oc3ccc(NC(=O)Nc4ccc(F)cc4F)c(F)c3)c2cc1OC` [Ki8751, reference compound], the IC50 (human VEGFR2 kinase; read-out: KDR IC50, 20 μM ATP) is given as 800 nM and the IC50 (KDR [1]) is given as 0.9 nM.
For `COc1cc2ncnc(Nc3ccc(Cl)cc3)c2cc1OC` [Compound 10, (4-Chloro-phenyl)-(6,7-dimethoxy-quinazolin-4-yl)-amine], the “KDR assay activity in words” value (human VEGFR2 kinase) is listed as “relatively inactive” and the IC50 (KDR [2]) is listed as 800 nM.
For `COc1cc2ncnc(Nc3ccc(C)c(F)c3)c2cc1OC` [Compound 14, (6,7-Dimethoxy-quinazolin-4-yl)-(3-fluoro-4-methyl-phenyl)-amine], the IC50 (human VEGFR2 kinase) was 2500 nM.
In the case of `COc1ccc(-c2cnc3c(-c4ccsc4)cnn3c2)cc1` [Compound 21, 6-(4-Methoxy-phenyl)-3-thiophen-3-yl-pyrazolo[1,5-a]pyrimidine], the “KDR assay activity in words” value (human VEGFR2 kinase) is reported as “active”.
